Structures can show the parent of a compound that is named as a salt.

T1 sequence (Q05941 23-502): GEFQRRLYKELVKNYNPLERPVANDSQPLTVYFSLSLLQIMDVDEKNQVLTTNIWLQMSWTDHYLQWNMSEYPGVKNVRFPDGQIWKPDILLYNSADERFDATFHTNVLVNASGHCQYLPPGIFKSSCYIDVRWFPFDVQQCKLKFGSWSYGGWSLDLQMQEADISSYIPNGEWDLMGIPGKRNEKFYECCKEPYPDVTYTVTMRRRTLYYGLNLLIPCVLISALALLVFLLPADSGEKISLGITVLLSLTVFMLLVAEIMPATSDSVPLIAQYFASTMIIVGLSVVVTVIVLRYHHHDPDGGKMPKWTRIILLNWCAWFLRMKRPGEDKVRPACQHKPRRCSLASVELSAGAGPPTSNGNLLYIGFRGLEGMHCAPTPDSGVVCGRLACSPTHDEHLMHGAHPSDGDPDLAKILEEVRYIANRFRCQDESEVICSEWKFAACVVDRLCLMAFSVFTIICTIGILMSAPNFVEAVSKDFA

This experiment addresses T1, α7-subtype of nicotinic receptors (Rattus norvegicus, UniProt Q05941).
T1 construct: Cerebral cortices from male Wistar rats (150–250 g) are homogenised; from tissue; host or cells: rat cerebral cortex membrane homogenate
The experiment in a line: In vitro inhibition of 3H-α-bungarotoxine binding in rat brain. The conditions noted are these: rat cerebral cortex homogenate; 3H-α-bungarotoxine 2 nM; 2 hours at 37° C.
`c1ccc(-c2ccc(N3CCN4CCC3CC4)cc2)cc1` [Compound 34, 4-Biphenyl-4-yl-1,4-diazabicyclo[3.2.2]nonane fumaric acid salt]: the half-maximal inhibitory concentration (IC50) turned out to be 24 nM.

On to `c1csc(-c2ccc(N3CCN4CCC3CC4)nn2)c1` [Compound 4, 4-(6-Thien-2-yl-pyridazin-3-yl)-1,4-diazabicyclo[3.2.2]nonane fumaric acid salt], for which the half-maximal inhibitory concentration (IC50) was found to be 44 nM.

`c1cc(-c2ccc(N3CCN4CCC3CC4)nn2)cs1` [Compound 1, 4-[6-Thien-3-yl-pyridazin-3-yl]-1,4-diazabicyclo[3.2.2]nonane fumaric acid salt] displayed an IC50 of 38 nM.

On to `c1c[se]c(-c2ccc(N3CCN4CCC3CC4)nn2)c1` [Compound 5, 4-(6-Selenophen-2-yl-pyridazin-3-yl)-1,4-diazabicyclo[3.2.2]nonane fumaric acid salt], for which the concentration for half-maximal inhibition (IC50) amounted to 6.5 nM.

Take `c1cc(-c2ccc(N3CCN4CCC3CC4)nn2)co1` [Compound 7, 4-(6-Furan-3-yl-pyridazin-3-yl)-1,4-diazabicyclo[3.2.2]nonane fumaric acid salt]: the IC50 came to 22 nM.

The values are drawn from patent US7223753B2, “Diazabicyclic biaryl derivatives” (Neurosearch A/S, priority 2002, dated 2007).
